These results are taken from ChEMBL document CHEMBL3102697, “Controlled-deactivation cannabinergic ligands” (J Med Chem, 2013).

The structures appear in SMILES notation. pEC50, pKi: −log10 of the molar value. The source made the active and inactive calls. No cut-off for these calls is given here.

Data set [1] deals with Rattus norvegicus. In words: Induction of hypothermia in sc dosed Sprague-Dawley rat measured for 6 hrs. Type of data set: functional, organism-based.
For data set [2], the target named is Cannabinoid receptor 2 (Mus musculus, UniProt P47936). The data set is described as follows: Displacement of [3H]CP-55,940 from mouse CB2 receptor expressed in HEK293 cell membranes by scintillation counting analysis. In general terms: Loss of bound radioactivity is the signal in a displacement assay; it reports binding, not function.
Data set [3] has as its target T1, Cannabinoid receptor 1 (Rattus norvegicus, UniProt P20272). In words: Displacement of [3H]CP-55,940 from CB1 receptor in rat brain by scintillation counting analysis. Type of data set: tissue-based.
Data set [4] relates to Rattus norvegicus. In words: Induction of hypothermia in Sprague-Dawley rat at 3 mg/kg, sc up to 300 mins. Details: dose 3 mg/kg. Type of data set: functional, organism-based.
The subject of data set [5] is Rattus norvegicus. The data set is described as follows: Induction of hypothermia in Sprague-Dawley rat at 3 mg/kg, sc after 90 to 120 mins. Details: dose 3 mg/kg. Type of data set: functional, organism-based.
In data set [6] the test system is Rattus norvegicus. The data set is described as follows: Induction of hypothermia in Sprague-Dawley rat at 1 to 3 mg/kg, sc measured for 6 hrs. Type of data set: functional. Particulars: dose mg/kg 1-3; route subcutaneous.
Data set [7] has as its target Cannabinoid receptor 1 (Rattus norvegicus) (UniProt P20272). The data set is described as follows: Agonist activity at rat CB1 receptor expressed in HEK293 cells assessed as inhibition of forskolin-stimulated cAMP accumulation at 500 nM after 30 mins relative to CP-55,940. It counts as functional, cell-based. A general note: cAMP levels reflect the balance of adenylyl cyclase and phosphodiesterase activity.

For data set [8], the target named is T1, Cannabinoid receptor 1. The data set is described as follows: Agonist activity at rat CB1 receptor expressed in HEK293 cells assessed as inhibition of forskolin-stimulated cAMP accumulation after 30 mins. Type of data set: functional, cell-based.
Data set [9] relates to Plasma. The data set is described as follows: Half life in mouse plasma at 200 uM by HPLC analysis. Type of data set: ADME, cell-free.
Data set [10] deals with Plasma. The data set is described as follows: Half life in rat plasma at 200 uM by HPLC analysis. Type of data set: ADME, cell-free.
For data set [11], the target named is Cannabinoid receptor 2 (Homo sapiens, UniProt P34972). In words: Displacement of [3H]CP-55,940 from human CB2 receptor expressed in HEK293 cell membranes by scintillation counting analysis.
The test system of a further data set is Mus musculus. The data set is described as follows: Analgesic activity in CD-1 mouse assessed as tail-flick withdrawal latency at 0.3 to 1 mg/kg, ip. Type of data set: functional, organism-based.
Data set [12] relates to Rattus norvegicus. In words: Induction of hypothermia in Sprague-Dawley rat at 0.3 mg/kg, sc up to 6 hrs. It counts as functional, organism-based. Details: dose 0.3 mg/kg.
In data set [13] the test system is Rattus norvegicus. In words: Induction of hypothermia in Sprague-Dawley rat at 0.3 mg/kg, sc after 2 hrs. Type of data set: functional. As to conditions: route subcutaneous.
The subject of data set [14] is Rattus norvegicus. The data set is described as follows: Induction of hypothermia in Sprague-Dawley rat at 3 mg/kg, sc after 60 mins. Type of data set: functional, organism-based. More on the design: dose 3 mg/kg.
Data set [15] has as its system Rattus norvegicus. In words: Induction of hypothermia in Sprague-Dawley rat at 0.3 mg/kg, sc measured at 12 hrs. Type of data set: functional, organism-based. More on the design: dose 0.3 mg/kg.
Data set [16] concerns Rattus norvegicus. In words: Induction of hypothermia in Sprague-Dawley rat at 0.3 mg/kg, sc after 4 hrs. Type of data set: functional, organism-based. Details: dose 0.3 mg/kg.
The test system of data set [17] is Rattus norvegicus. In words: Induction of hypothermia in Sprague-Dawley rat at 0.1 to 3 mg/kg, sc measured for 6 hrs. It counts as functional, organism-based.
Data set [18] relates to Rattus norvegicus. In words: Induction of hypothermia in Sprague-Dawley rat at 3 mg/kg, sc after 6 hrs. Details: dose 3 mg/kg. It counts as functional, organism-based.
In data set [19] the target is Cannabinoid receptor 1 (Rattus norvegicus) (UniProt P20272). The data set is described as follows: Agonist activity at rat CB1 receptor expressed in HEK293 cells assessed as inhibition of forskolin-stimulated cAMP accumulation up to 5 uM after 30 mins. It counts as functional, cell-based.
The subject of data set [20] is Rattus norvegicus. In words: Induction of hypothermia in Sprague-Dawley rat at 1 mg/kg, sc up to 300 mins. Type of data set: functional, organism-based. More on the design: dose 1 mg/kg.
For data set [21], the system named is Rattus norvegicus. The data set is described as follows: Induction of hypothermia in Sprague-Dawley rat at 1 mg/kg, sc after 90 to 120 mins. Type of data set: functional, organism-based. Details: dose 1 mg/kg.

Sequence of Cannabinoid receptor 2 (Mus musculus, UniProt P47936) (P47936 whole entry): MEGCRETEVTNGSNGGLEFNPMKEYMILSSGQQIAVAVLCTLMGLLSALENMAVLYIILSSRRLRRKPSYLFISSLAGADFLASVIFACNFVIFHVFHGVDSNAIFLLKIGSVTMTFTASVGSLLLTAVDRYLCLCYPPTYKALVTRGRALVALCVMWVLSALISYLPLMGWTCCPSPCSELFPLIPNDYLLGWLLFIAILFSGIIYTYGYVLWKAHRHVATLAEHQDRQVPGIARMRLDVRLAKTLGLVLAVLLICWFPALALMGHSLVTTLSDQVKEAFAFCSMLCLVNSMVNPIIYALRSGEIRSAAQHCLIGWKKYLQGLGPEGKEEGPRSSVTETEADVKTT
Sequence of Cannabinoid receptor 1 (Rattus norvegicus) (P20272 whole entry): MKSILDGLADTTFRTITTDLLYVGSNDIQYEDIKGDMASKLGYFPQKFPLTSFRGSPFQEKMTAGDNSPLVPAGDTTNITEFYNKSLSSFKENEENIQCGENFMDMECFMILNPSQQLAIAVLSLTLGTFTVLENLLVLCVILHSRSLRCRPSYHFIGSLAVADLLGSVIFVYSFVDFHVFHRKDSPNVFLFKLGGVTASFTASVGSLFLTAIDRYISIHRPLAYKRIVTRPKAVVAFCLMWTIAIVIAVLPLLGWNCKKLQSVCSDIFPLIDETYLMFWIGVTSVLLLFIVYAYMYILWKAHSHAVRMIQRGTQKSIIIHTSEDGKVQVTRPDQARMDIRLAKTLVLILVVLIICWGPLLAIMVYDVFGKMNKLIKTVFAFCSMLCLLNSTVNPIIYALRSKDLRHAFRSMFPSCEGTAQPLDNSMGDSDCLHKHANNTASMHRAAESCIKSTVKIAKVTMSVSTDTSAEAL
T1 sequence (P20272 whole entry): as above
Sequence of Cannabinoid receptor 2 (Homo sapiens, UniProt P34972) (P34972 whole entry): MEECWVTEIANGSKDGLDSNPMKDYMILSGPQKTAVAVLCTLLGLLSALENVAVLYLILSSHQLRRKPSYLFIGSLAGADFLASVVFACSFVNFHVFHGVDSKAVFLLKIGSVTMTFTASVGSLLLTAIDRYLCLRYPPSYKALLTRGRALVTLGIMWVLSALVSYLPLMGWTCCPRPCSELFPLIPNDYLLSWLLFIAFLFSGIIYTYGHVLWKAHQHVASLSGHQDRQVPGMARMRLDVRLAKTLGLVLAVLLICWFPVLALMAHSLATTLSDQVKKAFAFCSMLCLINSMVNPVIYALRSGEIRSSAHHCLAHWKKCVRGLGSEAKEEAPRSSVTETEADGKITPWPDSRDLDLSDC

The pKi is the Ki on a negative log10 scale, so that one unit is a factor of ten. Low values mean a large Ki, high ones a small Ki. In the case of `CC1=CC[C@@H]2[C@@H](C1)c1c(O)cc(CC(=O)O)cc1OC2(C)C`, in the data set with Rattus norvegicus [1], the result was inactive. The pKi on Cannabinoid receptor 2 [2] and on Cannabinoid receptor 1 [3] was under 5.00 in each case.
Broadly, the Emax is the greatest response seen or fitted, relative to the assay's reference. As a reminder, the pEC50 is the negative decadic logarithm of the EC50, by convention in mol/L. In the case of `CCCCOC(=O)[C@@H](C)c1cc(O)c2c(c1)OC(C)(C)[C@@H]1CC=C(C)C[C@@H]21`, the outcome in the data set on Rattus norvegicus [4] was inactive. The result with Rattus norvegicus [5] was Active. In the data set with Rattus norvegicus [6], this molecule came in with a T of 3.6 °C. Moreover, in the data set with Rattus norvegicus [1], the Activity result is “Dose-dependent effect”. Moreover, the maximal response (Emax) in data set [7] was 63%. In addition, at Cannabinoid receptor 1 [8], the pEC50 was 8.38. Also, the t1/2 came out at 4 min in the data set with Plasma [9] and 4.3 min in the data set with Plasma [10]. In addition, the values for the pKi at Cannabinoid receptor 2 [11], at Cannabinoid receptor 2 [2] and at Cannabinoid receptor 1 [3] were 8.20, 8.21 and 9.22, respectively.
For `CC1=CC[C@@H]2[C@@H](C1)c1c(O)cc([C@@H](C)C(=O)O)cc1OC2(C)C`, the outcome in the data set on Rattus norvegicus [1] was inactive. The pKi on Cannabinoid receptor 2 [2] and at Cannabinoid receptor 1 [3] was under 5.00 each time.
With `CCCCOC(=O)C(C)(C)c1cc(O)c2c(c1)OC(C)(C)[C@@H]1CC=C(C)C[C@@H]21`, the outcome in the data set with Mus musculus, in the data set with Rattus norvegicus [12] and in the data set with Rattus norvegicus [14] was Active. Further, the T came out at 2 °C with Rattus norvegicus [13] and 3.6 °C in the data set on Rattus norvegicus [6]. Also, the result in the data set on Rattus norvegicus [4] was inactive. The Activity result in the data set with Rattus norvegicus [1] is “Dose-dependent effect”. Also, the Emax in [7] was determined as 92%. Also, the pEC50 at Cannabinoid receptor 1 [8] is 9.30. Further, the t1/2 with Plasma [9] was 12.4 min; in the data set with Plasma [10], 120 min. The pKi at Cannabinoid receptor 2 [11] was 8.77; on Cannabinoid receptor 2 [2], 8.68; on Cannabinoid receptor 1 [3], 9.52.
Consider `CC1=CC[C@@H]2[C@@H](C1)c1c(O)cc(C(C)(C)C(=O)O)cc1OC2(C)C`, for which, in the data set on Rattus norvegicus [1], the result was inactive. Besides, the negative-log Ki (pKi) on Cannabinoid receptor 2 [2] and at Cannabinoid receptor 1 [3] was under 5.00 throughout.
Turning to `CC1=CC[C@@H]2[C@@H](C1)c1c(O)cc(C3(C(=O)O)CCC3)cc1OC2(C)C`, the outcome in the data set on Rattus norvegicus [1] was inactive. In addition, the pKi at Cannabinoid receptor 2 [2] and at Cannabinoid receptor 1 [3] was under 5.00 each time.
As to `CC1=CC[C@@H]2[C@@H](C1)c1c(O)cc([C@H](C)C(=O)O)cc1OC2(C)C`, in the data set on Rattus norvegicus [1], the result was inactive. Also, the pKi at Cannabinoid receptor 2 [2] and on Cannabinoid receptor 1 [3] was under 5.00 each time.
For `CCCCCCC(C)(C)c1cc(O)c2c(c1)OC(C)(C)[C@@H]1CC=C(C)C[C@@H]21`, the result with Mus musculus, in the data set on Rattus norvegicus [15], in the data set with Rattus norvegicus [16] and in the data set with Rattus norvegicus [17] was Active.
For the molecule `CCCCOC(=O)[C@H](C)c1cc(O)c2c(c1)OC(C)(C)[C@@H]1CC=C(C)C[C@@H]21`, the outcome in the data set with Rattus norvegicus [18] and in the data set on Rattus norvegicus [17] was inactive. The inhibition entry in data set [19] was “inactive”. Further, the t1/2 in the data set on Plasma [9] is recorded as 5.9 min; in the data set on Plasma [10], 10.5 min. Further, the results for the pKi at Cannabinoid receptor 2 [11], on Cannabinoid receptor 2 [2] and at Cannabinoid receptor 1 [3] were 8.43, 8.35 and 8.80, respectively.
`CCCCOC(=O)C1(c2cc(O)c3c(c2)OC(C)(C)[C@@H]2CC=C(C)C[C@@H]32)CCC1`: the outcome with Rattus norvegicus [20] was inactive. In the data set with Rattus norvegicus [6], this molecule yielded a T of 3.6 °C. Further, in the data set with Rattus norvegicus [1], the Activity entry was “Dose-dependent effect”. Also, the Emax in [7] came out at 90%. At Cannabinoid receptor 1 [8], the pEC50 was 9.40. Moreover, the figures for the t1/2 in the data set on Plasma [9] and with Plasma [10] were 36.3 min and 263 min, respectively. The pKi on Cannabinoid receptor 2 [11] and at Cannabinoid receptor 2 [2] was 8.52 each time. For the same molecule, the result with Rattus norvegicus [21] was Active.
On to `CCCCOC(=O)Cc1cc(O)c2c(c1)OC(C)(C)[C@@H]1CC=C(C)C[C@@H]21`, for which the result in the data set on Rattus norvegicus [18] and with Rattus norvegicus [17] was inactive. The inhibition entry in [19] is “inactive”. Besides, the t1/2 was 0.7 min in the data set with Plasma [9] and under 0.5 min in the data set with Plasma [10]. In addition, the negative-log Ki (pKi) was 7.29 at Cannabinoid receptor 2 [11], 7.39 at Cannabinoid receptor 2 [2] and 7.57 at Cannabinoid receptor 1 [3].
